Experimental data taken from US12629370B2, “Treatment of prostate cancer” (Sumitomo Pharma Co., Ltd., priority 2016, dated 2026).
Where “and” joins values, the source holds several entries; their conditions need not be identical. Equal values may be shown once. Entries after “also recorded” stand apart in the source; their conditions may differ. Read-outs that look alike come from different tables or passages of the source.

Columns and labels:
serum testosterone [1] = assay: Example 7: serum testosterone lowering in healthy men; assay type: in vivo, human; conditions: for mean serum testosterone at end of 16 days: baseline 10.40 nmol/L
Description: (§1) FSH, DHT, and insulin-like growth factor 1 (IGF-1; Parts 3 and 4 only) were measured in a subset of samples. Serum testosterone was assayed using a conventional immunoassay for screening (LLOQ=0.4 nmol/L). A validated LC/MS/MS method, with an LLOQ of 0.173 nmol/L and a ULOQ of 10.425 nmol/L, was used for all subsequent baseline (i.e., the subject's serum hormone levels prior to treatment commencing) and postdose measurements.
Pharmacodynamic measures included serum concentrations of testosterone, DHT, LH, and FSH. In Part 2, the number and percentage of subjects with average serum testosterone levels less than 0.69 nmol/L occurring during the second week of dosing were tabulated. In Parts 3 and 4, the number and percentage of subjects with serum testosterone levels consistently less than 0.69 nmol/L from Day 14 through Day 28 were tabulated.

[2] = as above; assay type: in vivo; conditions: male, human, plasma, oral, maintenance doses of 80 mg or greater
serum DHT = assay: Example 7: serum DHT in healthy men; assay type: in vivo, human
Description: as §1

serum testosterone [3] = assay: Example 9: serum testosterone, castration and recovery, neoadjuvant/adjuvant ADT to EBRT, versus degarelix; assay type: in vivo, human
Description: Eligible male patients were aged ≥18 years with a histologically confirmed diagnosis of localized, intermediate-risk prostate cancer, for whom 6-month neoadjuvant and adjuvant androgen deprivation therapy (ADT) to external beam radiation therapy (EBRT) was indicated. The criteria for establishing intermediate-risk prostate cancer included the presence of one of the following, without any high-risk feature: T2b-T2c disease, Gleason score 7, or prostate-specific antigen (PSA) 10-20 ng/mL. […] Based on investigator discretion and clinical assessment of the patient's overall medical and disease status, participation was allowed for older patients with high-risk disease (e.g., based on Gleason score or tumor status) who were deemed likely to benefit from 6 months of neoadjuvant/adjuvant ADT.
Both treatment arms received treatment for 24 weeks. […] EBRT began no later than day 1, week 17. […]
Samples for testosterone, luteinizing hormone (LH), FSH, and PSA concentrations were taken at screening, on day 1 of the first week (additionally days 2 and 4 for testosterone and LH), and on day 1 of weeks 2, 3, 5, 9, 13, 17, 21, 25, 29, 33, and 37 thereafter.

FSH = assay: Example 8: FSH levels; assay type: in vivo, human;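 also: FSH determined at every study visit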
Description: Patients on leuprorelin received their final injection at week 37, day 1, and the week 49, day 1 visit was considered the end of leuprorelin exposure. Patients receiving leuprorelin at visits at 16 (EOT), 20 (follow-up visit), and 24 (EOS) weeks after the last leuprorelin injection.
FSH levels were also measured at each visit.

rats = conditions: rat, in vivo
[4] = Example 7: single and multiple dose pharmacokinetics and food effect in healthy men; assay type: in vivo, human; conditions: for half-life: read-out: mean plasma T1/2 (converted)
Description: Samples were analyzed using validated liquid chromatography with tandem mass spectrometry (LC/MS/MS) methods. The LLOQ was 0.0100 ng/ml for plasma and 0.500 ng/ml for urine.
Then, a formal assessment was performed using both analysis of variance (ANOVA) and power model approaches. […] In Part 2, steady state attainment was determined based on visual inspection of mean observed predose plasma concentration during multiple dosing (Ctrough) versus time profiles at each dose level. Noncompartmental analysis of Part 3 and 4 data were not planned given the limited number of postdose samples collected per subject on Days 1 and 28.

[5] = subjects with at least 24 weeks of treatment
[6] = Compound 1 Total, Week 2, Day 1
[7] = Compound 1 Total, Week 5, Day 1
[8] = Compound 1 Total, Week 13, Day 1
[9] = Compound 1 Total, Week 25, Day 1
[10] = Compound 1 Total, Week 49, Day 1

## CONC(=O)Nc1ccc(-c2sc3c(c2CN(C)C)c(=O)n(-c2ccc(OC)nn2)c(=O)n3Cc2c(F)cccc2F)cc1 [Compound 1, N-(4-(1-(2,6-difluorobenzyl)-5-((dimethylamino)methyl)-3-(6-methoxy-3-pyridazinyl)-2,4-dioxo-1,2,3,4-tetrahydrothieno[2,3-d]pyrimidin-6-yl)phenyl)-N′-methoxyurea]
Serum testosterone [1]; 20 mg QD, 14 days
  suppression of serum LH and testosterone during the second week: insufficient in maintaining adequate suppression
Serum testosterone [1]; 40 mg QD, 28 days
  castration outcome: ineffective in maintaining castration between Days 14 and 28
Serum testosterone [1]; 60 mg QD, 28 days
  castration outcome: intermediate to those of 40 and 80 mg
Serum testosterone [1]; 80 mg once daily
  time to reach castrate level: up to 21 days
Serum testosterone [1]; 320 mg day 1, 160 mg day 2, 40 mg day 3 to 28
  castration outcome: did not maintain castrate level
Serum testosterone [1]; 360 mg Day 1 and 40 mg day 2 to 14
  castration outcome: rapid castration level and sustained castration level
Serum testosterone [1]; 360 mg single dose
  time to castrate levels (<50 ng/dL): ≤ 24 h
Serum testosterone [1]; 40 to 180 mg daily (14 days) and 80 to 160 mg daily (28 days)
  effective medical castration: consistently achieved
Serum testosterone [1]; 14 days at 40, 80 and 180 mg
  profound castration threshold (average serum testosterone <0.69 nmol/L): achieved
Serum testosterone [1]; 28 days, 160 mg (Part 3) and 80 mg (Part 4)
  castration during third and fourth weeks: effective at achieving medical (<1.73 nmol/L) and profound (<0.69 nmol/L) castration
Serum testosterone [1]; Part 2, 80 mg
  mean serum testosterone at end of 16 days: 0.3565 nmol/L
Serum testosterone [1]; Part 2, 180 mg
  mean serum testosterone at end of 16 days: 0.4320 nmol/L
Serum testosterone [1]; in vivo
  minimal fully effective / recommended maintenance dose for sustained medical castration: ≥ 80 mg QD
Serum testosterone [1]; maintenance doses of 80, 160 and 180 mg QD
  effective medical castration: consistently achieved
Serum testosterone [1]; single doses of 80, 120, 180 and 360 mg
  duration of mean serum testosterone suppression: maintained through 36 hours postdose
[2]
  concentration at 28 days: > 4 ng/mL
Serum DHT; Part 1 single doses 80-360 mg
  time postdose at which mean serum DHT began to decrease: 2 h
Serum DHT; Part 2, 80 mg, baseline 1.883 nmol/L
  mean serum dihydrotestosterone at end of 16 days: 1.095 nmol/L
Serum DHT; Part 2, 180 mg, baseline 1.882 nmol/L
  mean serum dihydrotestosterone at end of 16 days: 0.865 nmol/L
Serum testosterone [3]; 120 mg QD after 320 mg load
  visit by which average serum testosterone decreased below medical castration threshold of 50 ng/dL: Day 4
  visit by which average serum testosterone decreased below profound castration threshold of 20 ng/dl: Week 5 Day 1
Serum testosterone [3]; 4 weeks from last dose
  Kaplan-Meier estimate (95% CI) of testosterone recovery, probability of event: 0.03 (0.00.0.08)
  Percent recovery (95% CI) to baseline testosterone or >280 ng/dL: 3.1 (0.4.10.7) %
Serum testosterone [3]; 8 weeks from last dose
  Kaplan-Meier estimate (95% CI) of testosterone recovery, probability of event: 0.24 (0.13.0.34)
  Percent recovery (95% CI) to baseline testosterone or >280 ng/dL: 23.1 (13.5.35.2) %
Serum testosterone [3]; 12 weeks from last dose
  Kaplan-Meier estimate (95% CI) of testosterone recovery, probability of event: 045 (0.33.0.58)
Serum testosterone [3]; Baseline
  Median testosterone: 355.7 ng/dL
  Testosterone Median: 12.350 nmol/L
Serum testosterone [3]; Baseline, Compound 1 120 mg QD or degarelix 80 mg Q4W
  Testosterone Mean (Std Dev): 14.067 (6.7100) nmol/L
Serum testosterone [3]; EOS
  Testosterone Median: 8.920 nmol/L
Serum testosterone [3]; EOT
  Testosterone Mean (Std Dev): 5.117 (5.7671) nmol/L
  Testosterone Median: 3.260 nmol/L
Serum testosterone [3]; Follow-Up
  Testosterone Mean (Std Dev): 9.889 (6.3879) nmol/L
  Testosterone Median: 8.275 nmol/L
Serum testosterone [3]; Week 1 Day 4
  time after start of dosing at which serum testosterone was on average below medical castration levels: 72 h
Serum testosterone [3]; Week 24
  Median testosterone: 8.1 ng/dL
Serum testosterone [3]; Week 25, Day 1
  Testosterone Mean (Std Dev): 0.395 (0.5584) nmol/L
  Testosterone Median: 0.280 nmol/L
Serum testosterone [3]; Week 28/EOT visit
  Median testosterone: 93.9 ng/dL
Serum testosterone [3]; Week 32/follow-up
  Median testosterone: 238.3 ng/dL
Serum testosterone [3]; Week 36/EOS
  Median testosterone: 256.9 ng/dL
Serum testosterone [3]; by 8 weeks of follow-up
  patients recovered to baseline testosterone or >280 ng/dL: Nearly half
Serum testosterone [3]; end of 12-week follow-up
  patients recovered to baseline testosterone or greater than 280 ng/dL: approximately half
Serum testosterone [3]; follow-up visit and end of study
  mean serum testosterone after removal of therapy: approximately 10 nmol/L
Serum testosterone [3]; in vivo
  Median time to medical castration (≤50 ng/dL): 4 days
  Median time to profound castration (≤20 ng/dL): 15 days
Serum testosterone [3]; over 24 weeks, overall
  medical castration rate (less than 50 ng/dL): 95%
  profound castration rate (less than 20 ng/dL): 82%
Serum testosterone [3]; overall safety population
  Testosterone recovery (baseline or >280 ng/dL): number with events: 34 (52) n (%)
  Testosterone recovery: number censored: 30 (46) n (%)
  Time to testosterone recovery, 25th percentile (95% CI): 57 (45.62) days
  Time to testosterone recovery, 75th percentile (95% CI): 127 (93.127) days
  Time to testosterone recovery, Median (95% CI): 91 (62, 127) days and 91 (62.127) days
Serum testosterone [3]; patients treated for at least 24 weeks
  median (95% CI) number of days to testosterone recovery: 86 (58, 93) days
Serum testosterone [3]; [5]
  medical castration rate (less than 50 ng/dL): 98%
  profound castration rate (less than 20 ng/dL): 84%
FSH; 80 mg QD, Baseline
  FSH Mean (Std Dev): 14.729 (14.3473) IU/L
  FSH Median: 9.550 IU/L
FSH; 80 mg QD, Week 2, Day 1
  FSH Mean (Std Dev): 3.112 (3.0612) IU/L
  FSH Median: 2.100 IU/L
FSH; 80 mg QD, Week 5, Day 1
  FSH Mean (Std Dev): 1.248 (2.6737) IU/L
  FSH Median: 0.400 IU/L
FSH; 80 mg QD, Week 13, Day 1
  FSH Mean (Std Dev): 1.137 (2.4242) IU/L
  FSH Median: 0.500 IU/L
FSH; 80 mg QD, Week 25, Day 1
  FSH Mean (Std Dev): 1.090 (0.9932) IU/L
  FSH Median: 0.800 IU/L
FSH; 80 mg QD, Week 49, Day 1
  FSH Mean (Std Dev): 1.802 (1.3956) IU/L
  FSH Median: 1.450 IU/L
FSH; 120 mg QD, Baseline
  FSH Median: 11.050 IU/L
FSH; 120 mg QD, Week 2, Day 1
  FSH Mean (Std Dev): 3.183 (2.8956) IU/L
  FSH Median: 2.300 IU/L
FSH; 120 mg QD, Week 5, Day 1
  FSH Mean (Std Dev): 1.035 (1.0479) IU/L
  FSH Median: 0.600 IU/L
FSH; 120 mg QD, Week 13, Day 1
  FSH Mean (Std Dev): 0.908 (0.8104) IU/L
  FSH Median: 0.600 IU/L
FSH; 120 mg QD, Week 25, Day 1
  FSH Mean (Std Dev): 1.344 (0.9675) IU/L
  FSH Median: 1.200 IU/L
FSH; 120 mg QD, Week 49, Day 1
  FSH Mean (Std Dev): 1.938 (1.2169) IU/L
  FSH Median: 1.600 IU/L
FSH; 120 mg dose, >10 mIU/mL at baseline
  FSH range over the course of 48 weeks: 0.6-1.6 mIU/mL
FSH; Compound 1 Total, Baseline
  FSH Mean (Std Dev): 15.269 (13.5920) IU/L
  FSH Median: 9.850 IU/L
FSH; [6]
  FSH Mean (Std Dev): 3.147 (2.9653) IU/L
  FSH Median: 2.150 IU/L
FSH; [7]
  FSH Mean (Std Dev): 1.143 (2.0379) IU/L
  FSH Median: 0.550 IU/L
FSH; [8]
  FSH Mean (Std Dev): 1.025 (1.8164) IU/L
  FSH Median: 0.500 IU/L
FSH; [9]
  FSH Mean (Std Dev): 1.215 (0.9838) IU/L
  FSH Median: 0.900 IU/L
FSH; [10]
  FSH Mean (Std Dev): 1.867 (1.3077) IU/L
  FSH Median: 1.500 IU/L
FSH; after 48 weeks of treatment
  median FSH: 1.62 mIU/mL
rats
  adverse effect observed in non-clinical toxicity studies: phospholipidosis
[4]; 180 mg single dose
  decrease in mean Cmax and mean plasma AUC0-∞ on co-administration with food versus fasting: approximately 50%
  median Tmax, fasting conditions: 1.75 h
[4]; 180 mg single dose, high fat breakfast
  median Tmax, fed conditions: 5.00 h
[4]; 180 mg, Part 2 Day 1 versus Part 1 fasted
  decrease in mean plasma AUC (systemic exposure), dosing 30 min before standardized meal versus fasted: approximately 28%
[4]; 20 to 180 mg QD
  dose proportionality of mean Cmax at steady state: increased slightly more than dose-proportionately
  dose proportionality of mean plasma AUC0-tau at steady state: increased in a dose-proportional manner
[4]; across all doses studied
  median Tmax: ~2 h
[4]; after single and repeat dosing
  Compound 1 excreted unchanged in urine: Less than 4%
[4]; male, human, plasma, oral, 180 mg single dose, high fat breakfast, read-out: median Tmax, fed conditions
  Tmax: 5 h
[4]; male, human, plasma, oral, across the 20 to 180 mg QD dose range
  half-life: 36 to 65 h
[4]; male, human, plasma, oral, repeat dosing, 20 mg QD
  half-life: 64.5 h
[4]; male, human, plasma, oral, repeat dosing, 180 mg QD
  half-life: 35.8 h
[4]; single doses of 80 mg to 360 mg
  dose proportionality of mean Cmax and mean plasma AUC0-∞: dosed proportionally over 80-360 mg range; also recorded: approximate dose-proportional increases
[4]; steady state
  increase in systemic exposure following QD dosing: approximately 2 fold
